Marks after values point to notes of the source that are not given here.
Tests used:
[1] = Feed intake, body weight development and feed conversion ratio of Zucker rats fed supplemented diets; assay type: in vivo; details: obese (fa/fa) Zucker rats, supplemented diet fed 4 wk, means ± SD (n = 12)
Excerpt: Zucker rats are an established model of human early-onset, hyperplastic-hypertrophic obesity and insulin resistance as well as human non-insulin dependent diabetes mellitus.
(§1) A total of 60 male, 8-10 week old, obese (fa/fa) Zucker rats (Crl:ZUC-Leprfa; Charles River, France) with an initial body weight of 358±24 (mean±SD) g were randomly assigned to five groups of twelve rats each. In addition, 12 male, 8-10 week old, heterozygous lean (fa/+) Zucker rats with an initial body weight of 271±10 g were used as a lean control group. All rats were kept individually in Macrolon cages in a room maintained at 22±1° C. and 50-60% relative humidity with lighting from 06.00 to 18.00 hours. All experimental procedures described followed established guidelines for the care and handling of laboratory animals and were approved by the local Animal Care and Use Committee.
(§2) The rats were fed semi-purified diets which were composed according to the recommendations of the American Institute of Nutrition (AIN)-93G. Five different diets were used differing in their supplementation. […] Diets were prepared by mixing the dry components and subsequent pelleting with a standard pelleting device (Kahl Laborpressanlage Typ 14-175; Reinbek, Germany). Feed was administered ad libitum, and feed intake was recorded weekly. Experimental diets were fed for 4 weeks. Water was available ad libitum from nipple drinkers during the whole experiment.

[2] = Organ weights of the rats; assay type: in vivo; details: obese (fa/fa) Zucker rats, supplemented diet fed 4 wk, means ± SD (n = 12)
Description: (§3) All rats were kept individually in Macrolon cages in a room maintained at 22±1° C. and 50-60% relative humidity with lighting from 06.00 to 18.00 hours. All experimental procedures described followed established guidelines for the care and handling of laboratory animals and were approved by the local Animal Care and Use Committee.
(§4) Five different diets were used differing in their supplementation. […] Feed was administered ad libitum, and feed intake was recorded weekly. Experimental diets were fed for 4 weeks. Water was available ad libitum from nipple drinkers during the whole experiment.

[3] = Plasma and lipoprotein lipid concentrations (triacylglycerol, cholesterol; enzymatic kits); assay type: in vivo, Zucker rats; details: obese (fa/fa) Zucker rats, supplemented diet 4 wk, fasted, means ± SD (n = 12)
Description: as §1, §2
(§5) The rats were decapitated under CO2 anesthesia in the fasted state. Whole blood was collected into EDTA polyethylene tubes (Sarstedt, Nürnbrecht, Germany). Plasma was separated from whole blood by centrifugation (1,100×g; 10 min) at 4° C. Lipoproteins [VLDL, LDL and high-density lipoproteins (HDL)] were separated by step-wise ultracentrifugation (900,000×g, 1.5 h, 4° C.; Mikro-Ultrazentrifuge, Sorvall Products, Bad Homburg, Germany). All samples were stored at −20° C. pending analysis.
Triacylglycerol and cholesterol concentrations in plasma and lipoproteins were determined using enzymatic reagent kits from Biocon (Vöhl-Marienhagen, Germany).

[4] = Fasting glucose concentration in plasma; assay type: in vivo, Zucker rats; details: obese (fa/fa) Zucker rats, supplemented diet 4 wk, fasted, means ± SD (n = 12)
Description: as §1, §2, §5
Glucose concentration in plasma was determined by an enzymatic reagent kit from Analyticon Biotechnologies (Lichtenfels, Germany).

[5] = Non-esterified fatty acids (NEFA) in plasma; assay type: in vivo, Zucker rats; details: obese (fa/fa) Zucker rats, supplemented diet 4 wk, fasted, means ± SD (n = 12)
Description: as §1, §2, §5
NEFA concentrations in plasma were determined using the NEFA kit from Wako Chemicals (Neuss, Germany).

leptin = assay: Leptin in plasma (rat ELISA); assay type: in vivo, Zucker rats; details: obese (fa/fa) Zucker rats, supplemented diet 4 wk, fasted, means ± SD (n = 12)
Description: as §1, §2, §5
(§6) Concentrations of leptin in plasma was determined by rat ELISA kits from BioVendor (Heidelberg, Germany). Concentration of high molecular weight adiponectin was determined by a rat ELISA kit from Shibayagi (Ishihara, Shibukawa, Gunma, Japan).

[6] = tested on: high molecular weight adiponectin; assay: High molecular weight adiponectin in plasma (rat ELISA); assay type: in vivo; details: obese (fa/fa) Zucker rats, supplemented diet 4 wk, fasted, means ± SD (n = 12)
Description: as §1, §2, §5, §6

[7] = tested on: sterol regulatory element-binding protein (SREBP)-1c; assay: Relative mRNA concentration in liver, lipogenesis: SREBP-1c; assay type: in vivo, Zucker rats; details: liver of obese Zucker rats, diet 4 wk, obese control = 1.00, means ± SD (n = 12)
Description: as §3, §4

[8] = tested on: fatty acid synthase (FAS); assay: Relative mRNA concentration in liver, lipogenesis: FAS; assay type: in vivo, Zucker rats; details: liver of obese Zucker rats, diet 4 wk, obese control = 1.00, means ± SD (n = 12)
Description: as §3, §4

[9] = tested on: stearoyl-CoA desaturase (SCD); assay: Relative mRNA concentration in liver, lipogenesis: SCD; assay type: in vivo; details: liver of obese Zucker rats, diet 4 wk, obese control = 1.00, means ± SD (n = 12)
Description: as §3, §4

[10] = tested on: fatty acid binding protein (FABP); assay: Relative mRNA concentration in liver, fatty acid uptake: FABP; assay type: in vivo, Zucker rats; details: liver of obese Zucker rats, diet 4 wk, obese control = 1.00, means ± SD (n = 12)
Description: as §3, §4

[11] = tested on: fatty acid transport protein (FATP); assay: Relative mRNA concentration in liver, fatty acid uptake: FATP; assay type: in vivo; details: liver of obese Zucker rats, diet 4 wk, obese control = 1.00, means ± SD (n = 12)
Description: as §3, §4

scavenger receptor CD36 = assay: Relative mRNA concentration in liver, fatty acid uptake: CD36; assay type: in vivo; details: liver of obese Zucker rats, diet 4 wk, obese control = 1.00, means ± SD (n = 12)
Description: as §3, §4

lipoprotein lipase (LPL) = assay: Relative mRNA concentration in liver, fatty acid uptake: LPL; assay type: in vivo; details: liver of obese Zucker rats, diet 4 wk, obese control = 1.00, means ± SD (n = 12)
Description: as §3, §4

acyl-CoA oxidase (ACO) = assay: Relative mRNA concentration in liver, fatty acid oxidation: ACO; assay type: in vivo; details: liver of obese Zucker rats, diet 4 wk, obese control = 1.00, means ± SD (n = 12)
Description: as §3, §4

[12] = tested on: liver-type carnitine-palmitoyltransferase (L-CPT) I; assay: Relative mRNA concentration in liver, fatty acid oxidation: L-CPT I; assay type: in vivo; details: liver of obese Zucker rats, diet 4 wk, obese control = 1.00, means ± SD (n = 12)
Description: as §3, §4

CC/C=C\C/C=C\C/C=C\C/C=C\C/C=C\C/C=C\CCC(=O)O [DHA, docosahexaenoic acid]
Daily body weight gain [1]: 5.14 ± 0.60 ^a g | Feed conversion ratio [1]: 5.01 ± 0.28 ^c g/g | Feed intake [1]: 25.7 ± 2.9 ^ab g/d | Final body weight [1]: 505 ± 34 ^a g | Total body weight gain [1]: 146 ± 17 ^a g | Absolute organ weights: Heart [2]: 1.36 ± 0.13 g | Absolute organ weights: Kidney [2]: 2.59 ± 0.38 g | Absolute organ weights: Liver [2]: 24.7 ± 3.7 ^a g | Relative organ weights: Heart [2]: 2.70 ± 0.21 ^b mg/g body weight | Relative organ weights: Kidney [2]: 5.16 ± 0.91 mg/g body weight | Relative organ weights: Liver [2]: 48.6 ± 4.9 ^a mg/g body weight | Cholesterol, HDL [3]: 4.51 ± 0.45 ^a mmol/L | Cholesterol, Plasma [3]: 8.30 ± 1.00 ^a mmol/L | Cholesterol, VLDL + LDL [3]: 3.62 ± 0.53 ^a mmol/L | Triacylglycerols, Plasma [3]: 4.73 ± 0.98 ^bc mmol/L | Triacylglycerols, VLDL + LDL [3]: 2.81 ± 0.52 ^b mmol/L | Glucose in plasma [4]: 7.99 ± 0.77 ^ab mmol/L | NEFA in plasma [5]: 2.42 ± 0.53 ^b mmol/L | Leptin in plasma (leptin): 7.27 ± 1.09 ^a ng/mL | Adiponectin in plasma [6]: 120 ± 22 ng/mL | Relative mRNA concentration, SREBP-1c [7]: 0.81 ± 0.32 ^ab | Relative mRNA concentration, FAS [8]: 0.71 ± 0.55 ^ab | Relative mRNA concentration, SCD [9]: 1.01 ± 0.45 ^a | Relative mRNA concentration, FABP [10]: 0.99 ± 0.19 ^a | Relative mRNA concentration, FATP [11]: 1.07 ± 0.90 | Relative mRNA concentration, CD36 (scavenger receptor CD36): 0.91 ± 0.38 ^a | Relative mRNA concentration, LPL (lipoprotein lipase (LPL)): 1.26 ± 0.36 | Relative mRNA concentration, ACO (acyl-CoA oxidase (ACO)): 1.27 ± 0.35 | Relative mRNA concentration, L-CPT I [12]: 1.31 ± 0.69

From patent publication US20120148685A1, “METHODS AND COMPOSITIONS FOR TREATING INSULIN RESISTANCE, DIABETES MELLITUS TYPE 2, METABOLIC SYNDROME AND RELATED DISORDERS” (Engergy4Life AG, priority 2009, published 2012)
